{"source": "paper PMC9682480", "about": "““Vermellogens” and the Development of CB[8]-Based Supramolecular Switches Using pH-Responsive and Non-Toxic Viologen Analogues” (Journal of the American Chemical Society, 2022)", "key": {"[1]": {"experiment": "pKa determination by UV–vis acid–base titrations in water", "type": "physicochemical", "settings": "aqueous phosphate and carbonate buffers; RH^2+/R^+ or MH^+/M; UV–vis titrations in water, chloride salts", "text": "Next, in our study of the stimuli-responsiveness of the “vermellogens”, we proceeded to verify the new analogues as pH-based molecular switches, by conducting UV–vis acid–base titrations in water for the compounds Ra–eH·2Cl. All the new “vermellogens” show similar π–π* main absorption bands centered at λ^1max = 366–377 nm at neutral or slightly acidic pH. An increase in the basicity of the solution produces the decrease of the aforementioned bands and the concomitant rise of new absorptions associated with the deprotonated compounds and centered at λ^2max = 460–475 nm. The pKa values obtained by the aforementioned UV–vis titrations for Ra–eH·2Cl are quite similar, showing no dependence on the substituent on the pyridinium N^+ atoms within their structures (Table 1 and Figures S115–S125). Furthermore, to evaluate the effect of the two different pyridinium heterocycles on the observed anomalous pKa’s, two analogues were prepared (Ma–bH·Cl), in which one of these moieties was substituted by a neutral phenyl ring.\n4.2. pK a determination for Rb by UV-Vis\n(§1) Figure S 116: UV-Vis spectra for the titration of R b·2Cl at 20 μM in NaH 2PO4/Na2HPO4, KHCO3/K2CO3 and Na2HPO4/Na2PO4 buffers. On the top right: Absorption of R b+ at λ = 474 nm plotted against pH. pH V (mL) of V (mL) of V (mL) of V (mL) of V (mL) of ABS log[A474-(measured) solution A solution B solution C solution D solution E (474 ARb2+)/(ARb1+- […]\n(§2) Table S 4: Experimental data obtained for the UV-Vis titration of R b·2Cl at 20 μM in NaH2PO4/Na2HPO4, KHCO3/K2CO3 and Na2HPO4/Na2PO4 buffer. Solution A: 20 μM of R b·2Cl and 0.05 M of NaH2PO4. Solution B: 20 μM of R b·2Cl and 0.05 M of NaHPO4. Solution C: 20 μM of R b·2Cl and 0.05 M of Na2PO4. Solution D: 20 μM of R b·2Cl and 0.05 M of KHCO3. Solution E: 20 μM of R b·2Cl and 0.05 M of […]\n4.4. pK a determination for Rc by UV-Vis\nas §1, with “119:” for “116:”, “c·2Cl” for “b·2Cl”, “c+” for “b+”, “466” for “474”, “log[A466-(measured)” for “log[A474-(measured)”, “(466 ARc2+)/(ARc+-” for “(474 ARb2+)/(ARb1+-”\nTable S 5: Experimental data obtained for the UV-Vis titration of R c·2Cl at 20 μM in NaH2PO4/Na2HPO4, KHCO3/K2CO3 and Na2HPO4/Na2PO4 buffer. Solution A: 20 μM of Rc·2Cl and 0.05 M of NaH2PO4. Solution B: 20 μM of R c·2Cl and 0.05 M of NaHPO4. Solution C: 20 μM of R c·2Cl and 0.05 M of Na2PO4. Solution D: 20 μM of R c·2Cl and 0.05 M of KHCO3. Solution E: 20 μM of R c·2Cl and 0.05 M of […]\n4.6. pK a determination for Rd by UV-Vis\nas §1, with “122:” for “116:”, “d·2Cl” for “b·2Cl”, “d+” for “b+”, “475” for “474”, “log[A475-(measured)” for “log[A474-(measured)”, “(475 ARd2+)/(ARd1+-” for “(474 ARb2+)/(ARb1+-”\nas §2, with “6:” for “4:”, “d·2Cl” for “b·2Cl”\n4.8. pK a determination for Re by UV-Vis\nas §1, with “125:” for “116:”, “e·2Cl” for “b·2Cl”, “e+” for “b+”, “460” for “474”, “log[A460-(measured)” for “log[A474-(measured)”, “(460 ARe2+)/(ARe1+-” for “(474 ARb2+)/(ARb1+-”\nTable S 7: Experimental data obtained for the UV-Vis titration of R e·2Cl at 20 μM in NaH2PO4/Na2HPO4, KHCO3/K2CO3 and Na2HPO4/Na2PO4 buffer. Solution A: 20 μM of R e·2Cl and 0.05 M of […]"}, "[2]": {"experiment": "Cell viability assay (WST-1) in human fibroblastic cell line", "type": "cell-based", "settings": "human, HFF-1 fibroblast cells; HFF-1, 0.5 mM, 24 h, WST-1; read-out: cell viability (cell survival)", "experimental": "(§3) To conclude with this part of our work on the molecular responsiveness of the “vermellogens,” we decided to substantiate whether the bis-pyridinium core in the compounds would have or not a viologen-like reversible redox behavior. Thus, cyclic voltamograms were recorded for RaH·2Cl (2 mM) in buffered aqueous solutions at pH = 2 (0.05 M H3PO4/NaH2PO4), 7 (0.05 M NaH2PO4/Na2HPO4), and 12 (0.05 M Na2HPO4/Na3PO4). Those shown both the acidic (RaH^2+) and basic (Ra^+) forms of the “red thread” owning non-reversible redox peaks (Figure 1b).\n(§4) Fibroblast cells (HFF-1; ATTC® SCRC-1041TM) were maintained in Dulbecco’s modified eagle’s medium (DMEM) supplemented with 10% FBS and 1% P/S and kept at 37 °C in a humidified atmosphere containing 5% CO2 until their use. HFF-1 cells were seeded in 96 well-plates at an initial density of 10^4 cells/well and allowed to attach for 24 h at 37 °C. The following day, culture medium was removed, replenished by fresh medium (90 µl) and cells were exposed to different concentration of R aH·2Cl and MV (10 µl; final concentrations 0.01, 0.05, 0.1, 0.5 and 1 mM). Control conditions included cells cultured in culture medium, but in absence of compound. Cells were further incubated for 24 h at 37°C and cell viability was monitored using the tetrazolium salt (WST-1) method.6 Absorbance at 450 nm was measured using a Synergy HTX Plate Reader (Biotek, Winooski, VT, USA) and the percent of cell viability (%) was calculated as follows:\n(§5) Viability (%) = […]\n(§6) Where Asample and Anegative control depict those absorbance values measured at 450 nm in presence and in absence of compound, respectively. All conditions were tested by triplicate in two independent experiments. Data were expressed as mean ± standard deviation (SD). Statistical analysis was performed by two-ways and one-way ANOVA with Tukey’s LSD post hoc test using IBM SPSS Statistics version 23. A p ≤ 0.05 was considered statistically significant.\n(§7) Figure S 138: Compounds tested in WST-1 assay for cell viability.\n(§8) 6 Carballo-Pedrares, N.; Kattar, A.; Concheiro, A.; Alvarez-Lorenzo, C.; Rey-Rico, Niosomes-based gene delivery systems for effective transfection of human mesenchymal stem cells. A. Matter. Sci. Eng. 2021, 18, 112307."}, "HFF-1 cells": {"system": "HFF-1 cells", "experiment": "Cell viability assay (WST-1) in human fibroblastic cell line", "type": "cell-based", "settings": "HFF-1, 1 mM, 24 h, WST-1", "experimental": "as §3, §4, §5, §6, §7, §8"}}}
{"smiles": "C[n+]1ccc(/C=N/Nc2cc[n+](C)cc2)cc1", "note": "[RaH·2X, (E)-1-methyl-4-((2-(1-methylpyridin-1-ium-4-yl)hydrazineylidene)methyl)pyridin-1-ium]", "values": [{"measurement": "pKa", "setting": "[1]", "value": 9}, {"measurement": "viability at 24 h, 0.5 mM", "setting": "[2]", "value": "~90", "unit": "%"}, {"measurement": "cell survival at the highest concentration tested", "setting": "HFF-1 cells", "value": "slight reduction on cell survival"}]}
